The koff is a measure of how fast the partners let go of each other.

The source of these data is paper PMC7269146, “Jingzhaotoxin-X, a gating modifier of Kv4.2 and Kv4.3 potassium channels purified from the venom of the Chinese tarantula Chilobrachys jingzhao” (The Journal of Venomous Animals and Toxins Including …, 2020).

Test [1] has as its target T1, Kv4.2 (Rattus norvegicus, UniProt Q63881).
T1 construct: expressed in transfected cells; host or cells: HEK293t
T1 sequence (Q63881 1-630): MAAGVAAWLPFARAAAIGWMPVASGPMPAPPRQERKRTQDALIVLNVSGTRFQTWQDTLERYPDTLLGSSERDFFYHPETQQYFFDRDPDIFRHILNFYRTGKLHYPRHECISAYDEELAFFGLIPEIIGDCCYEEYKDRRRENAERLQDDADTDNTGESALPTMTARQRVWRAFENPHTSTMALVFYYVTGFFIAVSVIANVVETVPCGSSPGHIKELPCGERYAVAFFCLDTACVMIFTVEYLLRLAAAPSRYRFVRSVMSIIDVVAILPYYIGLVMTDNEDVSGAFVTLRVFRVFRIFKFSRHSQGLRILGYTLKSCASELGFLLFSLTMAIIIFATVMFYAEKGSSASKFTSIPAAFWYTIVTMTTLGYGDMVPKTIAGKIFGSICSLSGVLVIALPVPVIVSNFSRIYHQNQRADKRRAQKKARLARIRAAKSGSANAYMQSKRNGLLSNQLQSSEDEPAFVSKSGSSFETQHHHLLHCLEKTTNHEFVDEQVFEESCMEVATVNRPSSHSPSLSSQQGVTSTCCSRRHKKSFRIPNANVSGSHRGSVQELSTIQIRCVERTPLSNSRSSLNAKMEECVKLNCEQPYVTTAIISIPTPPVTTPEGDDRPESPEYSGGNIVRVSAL
Kind of test: current-voltage relationship / activation, Kv4.2. The test is classed as cell-based. The text has this:
(§1) Rat cDNA genes encoding Kv4.2 (Accession: NM_031730.2) and Kv4.3 (Accession: AB003587.1) were subcloned to vector pcDNA3.1. In addition, human cDNA genes encoding Nav1.7 (Accession: DQ857292.1) and Nav1.5 (Accession: AB158469.2) were subcloned to vectors pcDNA3.1-mod and pcDNA3.1, separately. Then, Kv4.2, Kv4.3, Nav1.5 and Nav1.7 constructs were transiently transfected into the human embryonic kidney 293t (HEK293t) cells using lipofectamine 2000 (Invitrogen, USA) in accordance with manufacturer protocols. Thereafter, HEK293 cells were inoculated within Dulbecco’s modified Eagle’s medium (DMEM) containing 10% fetal bovine serum (FBS) at 5% CO2 and 37°C. The Kv4.3 channel and the Kv4.2 counterpart were then transfected in the absence of β subunit. Subsequently, cells were incubated with a DNA-lipofectamine mixture (one reporter plasmid for green fluorescence protein and channel constructs) for 4-6 h, and were washed with the fresh medium.
(§2) An EPC-10 patch-clamp amplifier (HEKA, Germany) was employed to record the potassium currents at the configuration of whole-cell patch-clamp under an ambient temperature of 22-25°C. The resistance was 2.0-3.0 MΩ when the recording pipette contained a full volume of internal solution (supplemented with 140 mM KCl, 10 mM HEPES, 2.5 mM MgCl2, 5 mM ATP and 11 mM EGTA). KOH was utilized to adjust the pH to 7.2, while sucrose was employed to adjust the osmolarity to 310 mOsm/L. The culture medium was replaced with an external solution containing 150 mM NaCl, 2.5 mM CaCl2, 10 mM HEPES, 2 mM MgCl2, 5 mM KCl, and 10 mM D-glucose. Similarly, sucrose and NaOH were applied to adjust the osmolarity to 330 mOsm/L and pH to 7.4. […] The series resistance was maintained at about 5 MΩ, with 65-70% compensation. Finally, the leakage currents and linear capacitance were subtracted digitally according to the P/4 protocol.
The voltage-dependent inhibition of Kv4.2 and Kv4.3 channels by JZTX-X was determined by the depolarizing pulses to potentials in 10 mV steps from −80 to +60 mV at an interval of 10 s and the holding potential of -80 mV. […] For quantifying the voltage-depending inhibition of Kv4.2 and Kv4.3 channels, the relative current was drawn based on the membrane potential. Under control conditions, those threshold potentials to initially activate Kv4.2 and Kv4.3 currents were around -40 mV. The JZTX-X treatment at 500 nM inhibited the Kv4.2 and Kv4.3 currents, and then the I-V relation shifted to the right by about 30 mV (from -39.5 ± 1.9 mV to -11.3 ± 1.2 mV ) and 40 mV (from -39.8 ± 1.5 mV to -2.5 ± 0.9 mV ), separately (Fig. 5C and D). Additionally, the channel conductance also shifted rightward by around 30 mV (data not shown).
Figure 5. Effects of JZTX-X on I-V relationships in Kv4.2 and Kv4.3 channels: Each cell was held at the voltage of -80 mV, and the […] current families were induced at the depolarization steps of 300 ms to different potentials (range, -80 mV to +60 mV at 10 mV increments). […] ( C ) and ( D ) represented I-V relation for Kv4.2 (C) and Kv4.3 (D) currents before (filled circles) and after 100 nM (open circles) or 500 nM (filled inverted triangles) JZTX-X treatment, respectively. ( E ) and ( F ) represented the fractional suppression on Kv4.2 (E) and Kv4.3 (F) currents after 100 nM (filled circles) and 500 nM (open circles) JZTX-X treatment, respectively. All data were expressed as mean ± S.E.M (n = 5-7 cells).

Test [2] addresses T1, Kv4.2. Kind of test: kinetic constants of JZTX-X at Kv4.2 channel (wash-in / wash-out). The format is cell-based. Conditions: test conc. 0.2 μM, n = 6.
Text: as §1, §2
As for kinetic calculations, curves as a function of peak currents vs. time were plotted from the toxin wash-out or wash-in moments. The software Sigmaplot 9.0 (Sigma, USA) was utilized to fit data to the first-order exponential equation. […]

Where a SMILES comes first, the peptide text is derived from it. Bridges are numbered along the chain shown (N, C = ends).

For the compound `CC(C)C[C@@H]1NC(=O)[C@H](CCCCN)NC(=O)[C@H](Cc2ccc(O)cc2)NC(=O)[C@@H]2CSSC[C@@H]3NC(=O)[C@H](Cc4ccc(O)cc4)NC(=O)[C@H](Cc4ccccc4)NC(=O)CNC(=O)[C@H](C)NC(=O)[C@H](CSSC[C@H](NC(=O)[C@@H](N)CC(C)C)C(=O)N[C@@H](CO)C(=O)N[C@@H](CCCNC(=N)N)C(=O)N[C@@H](CCC(=O)O)C(=O)NCC(=O)N[C@@H](CCC(=O)O)C(=O)N[C@@H](Cc4ccccc4)C(=O)N2)NC(=O)[C@H](CSSC[C@@H](C(=O)N[C@@H](Cc2ccc(O)cc2)C(=O)N[C@@H](CCCNC(=N)N)C(=O)N[C@@H](CC(N)=O)C(=O)O)NC(=O)[C@H](Cc2c[nH]cn2)NC(=O)[C@H](CC(C)C)NC(=O)[C@H](C(C)C)NC(=O)[C@H](Cc2ccccc2)NC(=O)[C@H](C)NC(=O)[C@H](CCCCN)NC3=O)NC(=O)[C@H](CCCCN)NC(=O)[C@H](CCCNC(=N)N)NC1=O` [JZTX-X, Jingzhaotoxin-X] (H-LCSREGEFCYKLRKCCAGFYCKAFVLHCYRN-OH; disulfide 2-16, 9-21, 15-28; N-terminus assumed), at Kv4.2 [1] (100 nM, -80 to +60 mV in 10 mV steps), the “reduction of Kv4.2 currents over voltage range” value is reported as “reduced the currents of Kv4.2 channels throughout the whole voltage range”. The “I-V relation potential after toxin, Kv4.2” value on Kv4.2 [1] (500 nM, control -39.5 ± 1.9 mV, holding -80 mV, n = 5-7 cells) was -11.3 ± 1.2 mV. The “rightward shift of I-V relation, Kv4.2” value at Kv4.2 [1] (500 nM, holding -80 mV) was “about 30 mV”. The “rightward shift of channel conductance, Kv4.2” value at Kv4.2 [1] (data not shown, channel not named separately) was “about 30 mV”. For the same compound, the “voltage dependence of Kv4.2 inhibition” value on Kv4.2 [1] (test potentials -10 to +60 mV, 100 nM and 500 nM) is recorded as “dependent on voltage”. For the same compound, the “kmod, Kv4.2 channel” value at Kv4.2 [2] (inverse of τ of toxin wash-in) was determined as 0.089 ± 0.007 s⁻¹. In addition, the koff on Kv4.2 [2] (inverse of τ of toxin wash-out) was 0.008 ± 0.0006 s⁻¹. Also, the Kd (kinetic dissociation constant) on Kv4.2 [2] (method text: Kd = koff / kon, read-out: ki, Kv4.2 channel) was 95 ± 30 nM.
